Key:
[1] = stability in solution; assay type: physicochemical; conditions: over pH range
Source text: (§1) Advantageously according to the invention, the composition for use in a method for the prophylaxis and/or treatment of back pain and the composition comprising at least two components are in the form of an oral dosage form. An oral dosage form is easy to handle and is accepted by a user without problems. In addition, the user can easily take the composition themself. It is preferably a solid form of administration, in particular in the form of capsules, tablets, dragées, granules and powders. Addition of the composition to functional foods, such as a bar for healthy nutrition, is also possible. Alternatively or in addition, a liquid dosage form, in particular in the form of drops, stable solutions and/or juices, is also possible.

[2] = water solubility; assay type: physicochemical
Source text: as §1

stability in solution [1]: stable in solution over a wide pH range | water solubility [2]: good water solubility
Structure (SMILES): CC(=O)N[C@H]1C(O)O[C@H](CO)[C@@H](O)[C@@H]1O (stereo partly drawn) [N-acetyl-glucosamine, N-acetyl-D-glucosamine]

From US20200030349A1, “PHYSIOLOGICALLY ACTIVE PREPARATION COMPRISING N-ACETYL-GLUCOSAMINE FOR THE TREATMENT OF BACK PAIN” (Natural Products & Drugs GmbH, priority 2017, published 2020)
